Measurements: patent US10793575B2, “Oxoisoquinoline derivatives” (CARNA BIOSCIENCES, INC., priority 2016, dated 2020)

Key:
dephosphorylated BTK = dephosphorylated BTK (Homo sapiens (Human), UniProt Q06187); assay: BTK Activity Inhibition Test (mobility shift assay); assay type: biochemical; conditions: 200 μM ATP, read-out: Inhibitory Activity on BTK
Procedure, shortened: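 Biotinylated human BTK was dephosphorylated with λ phosphatase and assayed by mobility shift, with FITC-SRCtide as substrate in 20 mM HEPES pH 7.5, 0.01% Triton X-100 and 2 mM DTT. The substrate mix held 4 μM substrate, 20 mM MgCl2 and 200 μM ATP, and the enzyme solution held 0.46 nM BTK (stock levels, not final). After 2 h at room temperature, % inhibition was derived from P/(P+S) and IC50 by log-concentration regression.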

OCI-Ly10 cells = assay: Proliferation-Inhibitory Test Against Diffuse Large-Cell B-Cell Lymphoma OCI-Ly10 Strain; assay type: cell-based; conditions: Homo sapiens, 96 hours, alamarBlue
Procedure, shortened: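 In IMDM with 20% FBS, OCI-Ly10 cells (20000 cells/well) were exposed to compound at 0.9 nM to 30000 nM (0.3% DMSO final) for 96 hours. Viability was then read with alamarBlue reagent.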

[1] = target: C481S mutant BTK [BTK(C481S)] (Homo sapiens (Human), UniProt Q06187, C481S); assay: C481S Mutant BTK Inhibitory Activity Test (mobility shift assay); assay type: biochemical; conditions: for IC50: C481S mutant BTK, 100 μM ATP; for C481S mutation-resistance: IC50[BTK(C481S)]/IC50[BTK(WT)]
Chain of C481S mutant BTK [BTK(C481S)] (Q06187 whole entry C481S): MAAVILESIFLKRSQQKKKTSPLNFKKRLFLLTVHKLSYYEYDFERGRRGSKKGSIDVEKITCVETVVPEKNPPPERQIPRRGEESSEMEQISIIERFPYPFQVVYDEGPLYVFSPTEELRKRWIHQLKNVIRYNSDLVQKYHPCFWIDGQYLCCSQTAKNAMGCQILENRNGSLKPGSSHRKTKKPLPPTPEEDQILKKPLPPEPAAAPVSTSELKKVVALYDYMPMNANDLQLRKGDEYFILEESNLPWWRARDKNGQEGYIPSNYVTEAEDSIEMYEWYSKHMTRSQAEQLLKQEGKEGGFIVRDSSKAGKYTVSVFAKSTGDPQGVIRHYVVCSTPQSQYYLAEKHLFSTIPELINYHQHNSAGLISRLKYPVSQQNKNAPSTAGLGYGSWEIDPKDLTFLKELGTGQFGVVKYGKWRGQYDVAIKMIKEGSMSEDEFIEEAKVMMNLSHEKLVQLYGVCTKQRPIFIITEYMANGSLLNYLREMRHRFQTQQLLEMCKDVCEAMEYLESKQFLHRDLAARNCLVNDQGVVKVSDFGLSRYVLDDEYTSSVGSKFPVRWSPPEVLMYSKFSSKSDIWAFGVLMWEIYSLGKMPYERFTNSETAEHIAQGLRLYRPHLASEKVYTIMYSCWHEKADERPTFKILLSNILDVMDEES

BTK = BTK (Homo sapiens (Human), UniProt Q06187); assay: Intracellular BTK Auto-Phosphorylation Activity Inhibition Test in Ramos cells; assay type: cell-based; conditions: test compound 0.03 μM, anti-IgM stimulation, pY223, read-out: Inhibitory Activity on BTK-phosphorization
Chain of BTK (Q06187 whole entry): as the sequence (Q06187 whole entry C481S) above, with S481C counted along it
Method: Ramos cells (2G6.4C10, ATCC No. CRL-1923) were cultured in a T75 flask containing RPMI-1640 medium (GIBCO, # A10491-01) supplemented with 10% FBS (AusGene) and 1% penicillin-streptomycin (Nacalai Tesque, Inc.) (hereinafter referred to as growth medium) in a 5% CO2 incubator.
The cultured Ramos cells were diluted to a cell density of 7.5×10^6 cells/mL with a serum-free RPMI-1640 (hereinafter referred to as medium) and kept at 37° C. for 45 minutes. The cell suspension was dispensed in 1 mL aliquots into 2.0 mL tubes. A 0.03 mM solution of the test substance in DMSO was diluted with the medium to make a 0.09 μM test compound solution, 500 μL of which was then added to the tubes and the incubation was conducted at 37° C. for 1 hour in the presence of the test compound at a final concentration of 0.03 μM. Thereafter, the anti-IgM antibody (Invitrogen, H15100) which had been diluted with the medium was added at a final concentration of 10 μg/mL, and the incubation was conducted at 37° C. for 10 minutes.
To the pellets obtained by recovering the cells via centrifugation, 100 μL of a lysis buffer [RIPA Buffer(×1)(Cell Signaling Technology, Inc.) supplemented with 1% Phosphatase inhibitor Cacktail 3 (Sigma Corporation, No. P0044), 1% Phosphatase inhibitor Cacktail (Nacalai Tesque, Inc., No. 07575) and 1 mM phenylmethylsulfonyl fluoride (PMSF)] was added and stirred gently and then allowed to stand for 10 minutes. The supernatant was recovered by centrifugation (15,000 rpm, 15 minutes) and the protein level was quantified. The portion was mixed with the SDS-sample buffer, allowed to react for 5 minutes at 95° C. to denature the protein, thereby obtaining a sample solution. Each 5 μL of the sample solutions was applied to each well containing a 5 to 20% gradient acrylamide gel (Nacalai Tesque, Inc., No. 13064-04) and electrophoresis was conducted. Thereafter, iBlot gel transfer system (Life Technologies Corporation) was used to transfer the proteins in the gel onto a PVDF membrane.
The PVDF membrane after transfer was blocked with 2% ECL prime blocking Reagent (GE Healthcare) and thereafter the reaction was conducted overnight at 4° C. using anti-BTK mouse antibody (BD transduction laboratory, No. 611116) or anti-phosphorylated BTK rabbit antibody (pY223, EPITOMICS, No. 2207-1) as a primary antibody. The unreacted primary antibody was washed with a TBST buffer (10 mM Tris-HCl (pH 7.5), 150 mM NaCl, 0.1% Tween 20) and then the reaction was conducted for 1 hour at room temperature in a TBST buffer supplemented with 2% ECL prime blocking Reagent using HRP-labeled anti-mouse IgG horse antibody (Cell Signaling Technology, No. 7076) or anti-rabbit IgG goat antibody (Cell Signaling Technology, No. 7074) as a secondary antibody. After washing the unreacted secondary antibody with the TBST buffer, Chemi-Lumi One Super (Nacalai Tesque, Inc.) was used to conduct a reaction in accordance with the attached protocol, and then the respective bands as chemiluminescences were detected with a CCD camera (GE Healthcare ImageQuant LAS 500). […] Each phosphorylated BTK band was corrected based on the total BTK.
The intracellular BTK autophosphorylation inhibiting activity was indicated with the mark “***” when 90% or more, with the mark “**” when 70% or more and less than 90%, and with the mark “*” when 50% or more and less than 70%.

wild type BTK [BTK(WT)] = wild type BTK [BTK(WT)] (Homo sapiens (Human), UniProt Q06187); assay: C481S Mutant BTK Inhibitory Activity Test, wild type BTK (mobility shift assay); assay type: biochemical; conditions: 120 μM ATP
Chain of wild type BTK [BTK(WT)] (Q06187 whole entry): as the sequence (Q06187 whole entry C481S) above, with S481C counted along it

Chain of dephosphorylated BTK (Q06187 whole entry): as the sequence (Q06187 whole entry C481S) above, with S481C counted along it

SMILES	IC50 (dephosphorylated BTK) [nM]	IC50 (OCI-Ly10 cells) [nM]	IC50 [1] [nM]	C481S mutation-resistance [1]	inhibition at 0.03 µM (BTK) [%]	IC50 (wild type BTK [BTK(WT)]) [nM]
Nc1nc(-c2cccc(-n3ccc4cc(C5CC5)cc(F)c4c3=O)c2CO)c2cc(C3=CCN(C4COC4)CC3)[nH]c2n1 [Example 23, 2-(3-{2-amino-6-[1-(oxetan-3-yl)-1,2,3,6-tetrahydropyridin-4-yl]-7H-pyrrolo[2,3-d]pyrimidin-4-yl}-2-(hydroxymethyl)phenyl)-6-cyclopropyl-8-fluoroisoquinolin-1(2H)-one]	< 10	20	0.99	2.2	≥ 90	0.46
Cn1cc(-c2cc3c(-c4cccc(-n5ccc6cc(C7CC7)cc(F)c6c5=O)c4CO)nc(N)nc3[nH]2)cn1 [Example 13, 2-{3-[2-amino-6-(1-methyl-1H-pyrazol-4-yl)-7H-pyrrolo[2,3-d]pyrimidin-4-yl]-2-(hydroxymethyl)phenyl}-6-cyclopropyl-8-fluoroisoquinolin-1(2H)-one]	< 10	27	0.6	1.2	≥ 90	0.49
Nc1nc(-c2cccc(-n3ccc4cc(C5CC5)cc(F)c4c3=O)c2CO)c2nc(-c3ccccc3)[nH]c2n1 [Example 2, 2-[3-(2-amino-8-phenyl-9H-purin-6-yl)-2-(hydroxymethyl)phenyl]-6-cyclopropyl-8-fluoroisoquinolin-1(2H)-one]	< 10	68	0.99	1.0	≥ 90	0.97
CN1CCN(Cc2ccc(-c3cc4c(-c5cccc(-n6ccc7cc(C8CC8)cc(F)c7c6=O)c5CO)nc(N)nc4[nH]3)cc2)CC1 [Example 8, 2-[3-(2-amino-6-{4-[(4-methylpiperazin-1-yl)methyl]phenyl}-7H-pyrrolo[2,3-d]pyrimidin-4-yl)-2-(hydroxymethyl)phenyl]-6-cyclopropyl-8-fluoroisoquinolin-1(2H)-one]	< 10	4	0.43	1.3	≥ 90	0.33
Nc1nc(-c2cccc(-n3ccc4cc(C5CC5)cc(F)c4c3=O)c2CO)c2cc(-c3ccccc3)[nH]c2n1 [Example 1, 2-[3-(2-amino-6-phenyl-7H-pyrrolo[2,3-d]pyrimidin-4-yl)-2-(hydroxymethyl)phenyl]-6-cyclopropyl-8-fluoroisoquinolin-1(2H)-one]	< 10	–	–	–	≥ 90	–
N#Cc1ccc(-c2cc3c(-c4cccc(-n5ccc6cc(C7CC7)cc(F)c6c5=O)c4CO)nc(N)nc3[nH]2)cc1 [Example 27, 4-{2-amino-4-[3-(6-cyclopropyl-8-fluoro-1-oxoisoquinolin-2(1H)-yl)-2-(hydroxymethyl)phenyl]-7H-pyrrolo[2,3-d]pyrimidin-6-yl}benzonitrile]	< 10	182	–	–	≥ 90	–
Nc1nc(-c2cccc(-n3ccc4cc(C5CC5)cc(F)c4c3=O)c2CO)c2cn[nH]c2n1 [Example 5, 2-[3-(6-amino-1H-pyrazolo[3,4-d]pyrimidin-4-yl)-2-(hydroxymethyl)phenyl]-6-cyclopropyl-8-fluoroisoquinolin-1(2H)-one]	< 10	–	–	–	≥ 90	–
Nc1nc(-c2cccc(-n3ccc4cc(C5CC5)cc(F)c4c3=O)c2CO)c2cc(-c3ccsc3)[nH]c2n1 [Example 32, 2-{3-[2-amino-6-(thiophen-3-yl)-7H-pyrrolo[2,3-d]pyrimidin-4-yl]-2-(hydroxymethyl)phenyl}-6-cyclopropyl-8-fluoroisoquinolin-1(2H)-one]	< 10	79	–	–	≥ 90	–
Nc1nc(-c2cccc(-n3ccc4cc(C5CC5)cc(F)c4c3=O)c2CO)c2cc(-c3ccc(CN4CCOCC4)cc3)[nH]c2n1 [Example 26, 2-(3-{2-amino-6-[4-(morpholinomethyl)phenyl]-7H-pyrrolo[2,3-d]pyrimidin-4-yl}-2-(hydroxymethyl)phenyl)-6-cyclopropyl-8-fluoroisoquinolin-1(2H)-one]	< 10	75	–	–	≥ 90	–
